Experimental data from patent US6737383B1, “Herbicidal oxadiazolidines” (priority 1999, dated 2004).

Columns and labels:
[1] = system: blackgrass; test: Test B pre/postemergence blackgrass; assay type: in vivo, Alopecurus myosuroides
How it was run: (§1)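 Response is a visual 0-to-10 score relative to untreated plants, where 0 means no effect and 10 means complete control, taken twelve to sixteen days after application. Treatments went onto soil at planting and onto foliage of 1- to 4-leaf plants, using a surfactant-containing non-phytotoxic solvent.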

[2] = system: corn; test: Test B pre/postemergence corn; assay type: in vivo, Zea mays
How it was run: as §1

[3] = system: sugar beet; test: Test B pre/postemergence sugar beet; assay type: in vivo, Beta vulgaris
How it was run: as §1

[4] = system: velvetleaf; test: Test B pre/postemergence velvetleaf; assay type: in vivo, Abutilon theophrasti
How it was run: as §1

[5] = system: wheat; test: Test B pre/postemergence wheat; assay type: in vivo, Triticum aestivum
How it was run: as §1

[6] = system: purple nutsedge; test: Test B pre/postemergence purple nutsedge; assay type: in vivo, Cyperus rotundus
How it was run: as §1

[7] = system: bedstraw; test: Test B pre/postemergence bedstraw; assay type: in vivo, Galium aparine
How it was run: as §1

[8] = system: rape; test: Test B pre/postemergence rape; assay type: in vivo, Brassica napus
How it was run: as §1

[9] = system: smallflower flatsedge; test: Test B flood test smallflower flatsedge; assay type: in vivo, Cyperus difformis
How it was run: (§2)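 Each value is a visual injury score relative to controls, with 10 meaning complete control and 0 no effect. Evaluation took place twelve to sixteen days after the 2-leaf-stage plants were treated and kept in the greenhouse.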

[10] = system: bamyardgrass; test: Test B flood test barnyardgrass; assay type: in vivo, Echinochloa crus-galli
How it was run: as §2

[11] = system: soybean; test: Test B pre/postemergence soybean; assay type: in vivo, Glycine max
How it was run: as §1

[12] = system: surinam grass; test: Test B pre/postemergence surinam grass; assay type: in vivo, Brachiaria decumbens
How it was run: as §1

[13] = system: pigweed; test: Test B pre/postemergence pigweed; assay type: in vivo, Amaranthus retroflexus
How it was run: as §1

[14] = system: cocklebur; test: Test B pre/postemergence cocklebur; assay type: in vivo, Xanthium strumarium
How it was run: as §1

[15] = system: wild oat; test: Test B pre/postemergence wild oat; assay type: in vivo, Avena fatua
How it was run: as §1

[16] = system: crabgrass; test: Test B pre/postemergence crabgrass; assay type: in vivo, Digitaria sanguinalis
How it was run: as §1

[17] = Postemergence, Rate 62 g/ha, scale 0 to 10, 0 is no effect, 10 is complete control
[18] = Postemergence, Rate 250 g/ha, scale 0 to 10, 0 no effect, 10 complete control
[19] = Preemergence, Rate 62 g/ha, scale 0 to 10, 0 is no effect, 10 is complete control
[20] = Preemergence, Rate 125 g/ha, scale 0 to 10 (0 no effect, 10 complete control)
[21] = Preemergence, Rate 250 g/ha, scale of 0 to 10 where 0 is no effect and 10 is complete control
[22] = Preemergence, Rate 500 g/ha, scale 0 (no effect) to 10 (complete control)
[23] = Rate 125 g/ha, Postemergence, scale 0 to 10, 0 no effect, 10 complete control
[24] = Rate 500 g/ha, Postemergence, 0 to 10 scale (0 no effect, 10 complete control)
[25] = Rate 125 g/ha, Postemergence section (flood test species), scale 0 to 10, 0 no effect, 10 complete control
[26] = flood test, listed under Postemergence, Rate 250 g/ha, scale 0 to 10, 0 no effect, 10 complete control

In the case of `CCc1ccccc1-n1c(=O)on(C(=O)N(c2ccc(F)cc2F)C(C)C)c1=O` [Compound 45], the “Blackgrass plant response rating” value [1, 17] is reported as 0, the “Blackgrass plant response rating” value [1, 18] is reported as 4 and the “Plant response rating, Blackgrass” value [1, 19] is reported as 0. The “Plant response rating, Blackgrass” value [1, 20] was 0, the “Plant response rating, Blackgrass” value [1, 21] was 0 and the “Blackgrass plant response rating” value [1, 22] was 0. For the same molecule, the “Blackgrass plant response rating” value [1, 23] was 0, the “Blackgrass plant response rating” value [1, 24] was 4 and the “Corn plant response rating” value [2, 17] was 0. For the same molecule, the “Corn plant response rating” value [2, 18] was 0, the “Plant response rating, Corn” value [2, 19] was 0 and the “Plant response rating, Corn” value [2, 20] was 0. The “Plant response rating, Corn” value [2, 21] was 0, the “Corn plant response rating” value [2, 22] was 1 and the “Corn plant response rating” value [2, 23] was 0. The “Corn plant response rating” value [2, 24] was 0, the “Sugarbeets plant response rating” value [3, 17] was 0 and the “Sugarbeets plant response rating” value [3, 18] was 1. For the same molecule, the “Plant response rating, Sugarbeets” value [3, 19] was 0, the “Plant response rating, Sugarbeets” value [3, 20] was 0 and the “Plant response rating, Sugarbeets” value [3, 21] was 7. For the same molecule, the “Sugarbeets plant response rating” value [3, 22] was 8, the “Sugarbeets plant response rating” value [3, 23] was 0 and the “Velvetleaf plant response rating” value [4, 17] was 0. The “Velvetleaf plant response rating” value [4, 18] was 0, the “Plant response rating, Velvetleaf” value [4, 19] was 0 and the “Plant response rating, Velvetleaf” value [4, 20] was 0. For the same molecule, the “Plant response rating, Velvetleaf” value [4, 21] was 0, the “Velvetleaf plant response rating” value [4, 22] was 3 and the “Velvetleaf plant response rating” value [4, 23] was 0. The “Wheat plant response rating” value [5, 17] was 0, the “Wheat plant response rating” value [5, 18] was 0 and the “Plant response rating, Wheat” value [5, 19] was 0. For the same molecule, the “Plant response rating, Wheat” value [5, 20] was 0, the “Plant response rating, Wheat” value [5, 21] was 0 and the “Wheat plant response rating” value [5, 22] was 0. The “Wheat plant response rating” value [5, 23] was 0, the “Nutsedge plant response rating” value [6, 17] was 0 and the “Nutsedge plant response rating” value [6, 18] was 0. For the same molecule, the “Plant response rating, Nutsedge” value [6, 19] was 0, the “Plant response rating, Nutsedge” value [6, 20] was 0 and the “Plant response rating, Nutsedge” value [6, 21] was 0. The “Nutsedge plant response rating” value [6, 22] was 0, the “Nutsedge plant response rating” value [6, 23] was 0 and the “Nutsedge plant response rating” value [6, 24] was 0. The “Bedstraw plant response rating” value [7, 17] was 3, the “Plant response rating, Bedstraw” value [7, 19] was 0 and the “Plant response rating, Bedstraw” value [7, 20] was 0. The “Plant response rating, Bedstraw” value [7, 21] was 0, the “Bedstraw plant response rating” value [7, 22] was 0 and the “Bedstraw plant response rating” value [7, 23] was 5. The “Rape plant response rating” value [8, 17] was 0, the “Rape plant response rating” value [8, 18] was 0 and the “Plant response rating, Rape” value [8, 19] was 0. The “Plant response rating, Rape” value [8, 20] was 0, the “Plant response rating, Rape” value [8, 21] was 0 and the “Rape plant response rating” value [8, 22] was 0. For the same molecule, the “Rape plant response rating” value [8, 23] was 0, the “Rape plant response rating” value [8, 24] was 0 and the “S. Flatsedge plant response rating” value [9, 17] was 0. The “S. Flatsedge plant response rating” value [9, 25] was 0, the “S. Flatsedge plant response rating” value [9, 26] was 0 and the “Barnyardgrass plant response rating” value [10, 17] was 0. For the same molecule, the “Barnyardgrass plant response rating” value [10, 25] was 0, the “Barnyardgrass plant response rating” value ([10]; Rate 500 g/ha, Postemergence section of Table B, 0 to 10 scale (0 no effect, 10 complete control)) was 0 and the “Barnyardgrass plant response rating” value [10, 26] was 0. The “Soybean plant response rating” value [11, 17] was 1, the “Soybean plant response rating” value [11, 18] was 1 and the “Plant response rating, Soybean” value [11, 19] was 0. The “Plant response rating, Soybean” value [11, 20] was 0, the “Plant response rating, Soybean” value [11, 21] was 0 and the “Soybean plant response rating” value [11, 22] was 3. The “Soybean plant response rating” value [11, 23] was 1, the “B. signalgrass plant response rating” value [12, 17] was 0 and the “B. signalgrass plant response rating” value [12, 18] was 0. For the same molecule, the “Plant response rating, B. signalgrass” value [12, 19] was 0, the “Plant response rating, B. signalgrass” value [12, 20] was 2 and the “Plant response rating, B. signalgrass” value [12, 21] was 4. The “B. signalgrass plant response rating” value [12, 22] was 9, the “B. signalgrass plant response rating” value [12, 23] was 0 and the “B. signalgrass plant response rating” value [12, 24] was 2. For the same molecule, the “Redroot pigweed plant response rating” value [13, 17] was 0, the “Redroot pigweed plant response rating” value [13, 18] was 0 and the “Plant response rating, Redroot pigweed” value [13, 19] was 0. The “Plant response rating, Redroot pigweed” value [13, 20] was 0, the “Plant response rating, Redroot pigweed” value [13, 21] was 8 and the “Redroot pigweed plant response rating” value [13, 22] was 8. The “Redroot pigweed plant response rating” value [13, 23] was 0, the “Redroot pigweed plant response rating” value [13, 24] was 0 and the “Cocklebur plant response rating” value [14, 17] was 0. The “Cocklebur plant response rating” value [14, 18] was 2, the “Plant response rating, Cocklebur” value [14, 19] was 0 and the “Plant response rating, Cocklebur” value [14, 20] was 0. For the same molecule, the “Plant response rating, Cocklebur” value [14, 21] was 0, the “Cocklebur plant response rating” value [14, 22] was 0 and the “Cocklebur plant response rating” value [14, 23] was 1. For the same molecule, the “Cocklebur plant response rating” value [14, 24] was 5, the “Wild oats plant response rating” value [15, 17] was 0 and the “Wild oats plant response rating” value [15, 18] was 0. The “Plant response rating, Wild oats” value [15, 20] was 0, the “Plant response rating, Wild oats” value [15, 21] was 0 and the “Wild oats plant response rating” value [15, 22] was 0. The “Wild oats plant response rating” value [15, 23] was 0, the “Crabgrass plant response rating” value [16, 17] was 0 and the “Crabgrass plant response rating” value [16, 18] was 2. The “Plant response rating, Crabgrass” value [16, 19] was 0, the “Plant response rating, Crabgrass” value [16, 20] was 1 and the “Plant response rating, Crabgrass” value [16, 21] was 1. The “Crabgrass plant response rating” value [16, 22] was 9, the “Crabgrass plant response rating” value [16, 23] was 0 and the “Crabgrass plant response rating” value [16, 24] was 3.
